Test results reported in patent publication US9005575B2, “Arg-Gly-Asp-conjugated alpha-melanocyte stimulating hormone hybrid peptide for use in diagnosing and treating melanoma, including metastatic melanoma and methods related to same” (STC.UNM, priority 2009, dated 2015).
Read-outs that look alike come from different tables or passages of the source. Positions of bridges follow the written chain, without caps; N, C: chain ends. Non-standard residues stand in square brackets, D forms with d. Residues, ends and D or L forms follow the SMILES beside them.

Test: Biodistribution in B16/F1 melanoma-bearing C57 mice
Type: in vivo
Details: female, C57, mouse, iv, total radioactivity; for tissue uptake dose at 0.5 h / tissue uptake at 0.5 h: 0.5 h post-injection; for tissue uptake dose at 4 h / tissue uptake at 4 h: 4 h post-injection; for tissue uptake dose at 24 h / tissue uptake at 24 h: 24 h post-injection
Experimental: All the animal studies were conducted in compliance with Institutional Animal Care and Use Committee approval. The pharmacokinetics of ^99mTc-RGD-Lys-(Arg^11)CCMSH was determined in B16/F1 melanoma-bearing C57 female mice (Harlan, Indianapolis, Ind.). C57 mice were subcutaneously inoculated on the right flank with 1×10^6 B16/F1 cells. The weight of tumors reached approximately 0.2 g 10 days post cell inoculation. Each melanoma-bearing mouse was injected with 0.037 MBq of ^99mTc-RGD-Lys-(Arg^11)CCMSH via the tail vein. Groups of 5 mice were sacrificed at 0.5, 2, 4 and 24 h post-injection, and tumors and organs of interest were harvested, weighed and counted. Blood values were taken as 6.5% of the whole-body weight. The MC1 receptor specificity of the tumor uptake was determined at 2 h post-injection by co-injecting ^99mTc-RGD-Lys-(Arg^11)CCMSH with 10 μg (6.1 nmol) of unlabeled NDP-MSH, a linear α-MSH peptide analogue with picomolar affinity for the MC1 receptors present on murine melanoma cells. The co-injection of 3.5 μg (6.1 nmol) of RGD peptide was performed to determine the αvβ3 integrin specificity of the tumor uptake 2 h post-injection. Statistical analysis was performed using the Student's t-test for unpaired data.
All the animal studies were conducted in compliance with Institutional Animal Care and Use Committee approval. The pharmacokinetics of ^99mTc-RGD-Arg-(Arg^11)CCMSH was determined in B16/F1 melanoma-bearing C57 female mice (Harlan, Indianapolis, Ind.). C57 mice were subcutaneously inoculated on the right flank with 1×10^6 B16/F1 cells. The weight of tumors reached approximately 0.2 g 10 days post cell inoculation. Each melanoma-bearing mouse was injected with 0.037 MBq of ^99mTc-RGD-Arg-(Arg^11)CCMSH via the tail vein. Groups of 5 mice were sacrificed at 0.5, 2, 4 and 24 h post-injection, and tumors and organs of interest were harvested, weighed and counted. Blood values were taken as 6.5% of the whole-body weight. The MC1 receptor specificity of the tumor uptake was determined at 2 h post-injection by co-injecting ^99mTc-RGD-Arg-(Arg^11)CCMSH with 10 μg (6.1 nmol) of unlabeled NDP-MSH. The co-injection of 3.5 μg (6.1 nmol) of RGD peptide was performed to determine the αvβ3 integrin specificity of the tumor uptake at 2 h post-injection.

[1] = bladder, 0.037 MBq, read-out: Bladder, Percentage Injected Dose
[2] = blood, 0.037 MBq, read-out: Blood, Percentage Injected Dose/gram
[3] = bone, 0.037 MBq, read-out: Bone, Percentage Injected Dose/gram
[4] = brain, 0.037 MBq, read-out: Brain, Percentage Injected Dose/gram
[5] = heart, 0.037 MBq, read-out: Heart, Percentage Injected Dose/gram
[6] = intestines, 0.037 MBq, read-out: Intestines, Percentage Injected Dose
[7] = kidneys, 0.037 MBq, read-out: Kidneys, Percentage Injected Dose/gram
[8] = liver, 0.037 MBq, read-out: Liver, Percentage Injected Dose/gram
[9] = lung, 0.037 MBq, read-out: Lung, Percentage Injected Dose/gram
[10] = muscle, 0.037 MBq, read-out: Muscle, Percentage Injected Dose/gram

CC(C)[C@H](NC(=O)[C@@H]1CCCN1C(=O)[C@H](CCCNC(=N)N)NC(=O)[C@H](CS)NC(=O)[C@H](Cc1c[nH]c2ccccc12)NC(=O)[C@H](CCCNC(=N)N)NC(=O)[C@@H](Cc1ccccc1)NC(=O)[C@H](Cc1c[nH]cn1)NC(=O)[C@H](CCC(=O)O)NC(=O)[C@H](CS)NC(=O)[C@H](CS)NC(=O)[C@H](CCCCN)NC(=O)[C@@H]1CC(=O)N[C@@H](CCCNC(=N)N)C(=O)NCC(=O)N[C@@H](CC(=O)O)C(=O)N[C@H](Cc2ccc(O)cc2)C(=O)N1)C(N)=O [^99mTc-RGD-Lys-(Arg^11)CCMSH, metal not drawn] (RGD[dY]DKCCEH[dF]RWCRPV-NH2; lactam N-5)
dose excreted at 2 h (bladder (urine), 0.037 MBq, 2 h post-injection, read-out: Bladder, Percentage Injected Dose (cleared through the urinary system)): 62.3 ± 8.16% | tissue uptake dose at 0.5 h [1]: 46.9 ± 2.54 %ID | tissue uptake dose at 4 h [1]: 68.7 ± 2.06 %ID | tissue uptake dose at 24 h [1]: 78.2 ± 5.29 %ID | tissue uptake dose at 2 h (bladder, 2 h post-injection, NDP blockade (10 μg NDP-MSH co-injected), read-out: Bladder, Percentage Injected Dose): 75.9 ± 1.75 %ID | tissue uptake dose at 2 h (bladder, 2 h post-injection, RGD blockade (3.5 μg RGD co-injected), read-out: Bladder, Percentage Injected Dose): 75.1 ± 3.69 %ID | tissue uptake at 0.5 h [2]: 3.18 ± 0.51 %ID/g | tissue uptake at 2 h (blood, 0.037 MBq, 2 h post-injection, read-out: Blood, Percentage Injected Dose/gram): 0.96 ± 0.87 %ID/g | tissue uptake at 4 h [2]: 0.5 ± 0.27 %ID/g | tissue uptake at 24 h [2]: 0.11 ± 0.07 %ID/g | tissue uptake at 2 h (blood, 2 h post-injection, NDP blockade (10 μg NDP-MSH co-injected), read-out: Blood, Percentage Injected Dose/gram): 0.32 ± 0.34 %ID/g | tissue uptake at 2 h (blood, 2 h post-injection, RGD blockade (3.5 μg RGD co-injected), read-out: Blood, Percentage Injected Dose/gram): 0.53 ± 0.17 %ID/g | tissue uptake at 0.5 h [3]: 1.53 ± 0.75 %ID/g | tissue uptake at 2 h (bone, 0.037 MBq, 2 h post-injection, read-out: Bone, Percentage Injected Dose/gram): 1.05 ± 0.31 %ID/g | tissue uptake at 4 h [3]: 0.98 ± 0.67 %ID/g | tissue uptake at 24 h [3]: 0.71 ± 0.39 %ID/g | tissue uptake at 2 h (bone, 2 h post-injection, NDP blockade (10 μg NDP-MSH co-injected), read-out: Bone, Percentage Injected Dose/gram): 0.78 ± 0.65 %ID/g | tissue uptake at 2 h (bone, 2 h post-injection, RGD blockade (3.5 μg RGD co-injected), read-out: Bone, Percentage Injected Dose/gram): 0.37 ± 0.42 %ID/g | tissue uptake at 0.5 h [4]: 0.13 ± 0.03 %ID/g | tissue uptake at 2 h (brain, 0.037 MBq, 2 h post-injection, read-out: Brain, Percentage Injected Dose/gram): 0.12 ± 0.03 %ID/g | tissue uptake at 4 h [4]: 0.07 ± 0.04 %ID/g | tissue uptake at 24 h [4]: 0.06 ± 0.01 %ID/g | tissue uptake at 2 h (brain, 2 h post-injection, NDP blockade (10 μg NDP-MSH co-injected), read-out: Brain, Percentage Injected Dose/gram): 0.06 ± 0.02 %ID/g | tissue uptake at 2 h (brain, 2 h post-injection, RGD blockade (3.5 μg RGD co-injected), read-out: Brain, Percentage Injected Dose/gram): 0.03 ± 0.01 %ID/g | tissue uptake at 0.5 h [5]: 2.1 ± 0.41 %ID/g | tissue uptake at 2 h (heart, 0.037 MBq, 2 h post-injection, read-out: Heart, Percentage Injected Dose/gram): 0.85 ± 0.16 %ID/g | tissue uptake at 4 h [5]: 0.62 ± 0.31 %ID/g | tissue uptake at 24 h [5]: 0.39 ± 0.14 %ID/g | tissue uptake at 2 h (heart, with RGD peptide, 3.5 μg (6.1 nmol) co-injected, 2 h post-injection, RGD blockade (3.5 μg RGD co-injected), read-out: Heart, Percentage Injected Dose/gram): 0.37 ± 0.23 %ID/g | tissue uptake at 2 h (heart, with unlabeled NDP-MSH, 10 μg (6.1 nmol) co-injected, 2 h post-injection, NDP blockade (10 μg NDP-MSH co-injected), read-out: Heart, Percentage Injected Dose/gram): 0.47 ± 0.18 %ID/g | tissue uptake dose at 0.5 h [6]: 3.27 ± 0.13 %ID | tissue uptake dose at 2 h (intestines, 0.037 MBq, 2 h post-injection, read-out: Intestines, Percentage Injected Dose): 3.14 ± 1.2 %ID | tissue uptake dose at 4 h [6]: 2.95 ± 0.62 %ID | tissue uptake dose at 24 h [6]: 1.13 ± 0.18 %ID | tissue uptake dose at 2 h (intestines, 2 h post-injection, NDP blockade (10 μg NDP-MSH co-injected), read-out: Intestines, Percentage Injected Dose): 1.97 ± 0.17 %ID | tissue uptake dose at 2 h (intestines, 2 h post-injection, RGD blockade (3.5 μg RGD co-injected), read-out: Intestines, Percentage Injected Dose): 1.88 ± 0.16 %ID | tissue uptake at 0.5 h [7]: 69.4 ± 5.37 %ID/g | tissue uptake at 2 h (kidneys, 0.037 MBq, 2 h post-injection, read-out: Kidneys, Percentage Injected Dose/gram): 67.1 ± 8.79 %ID/g | tissue uptake at 4 h [7]: 68.3 ± 14.3 %ID/g | tissue uptake at 24 h [7]: 40.3 ± 10.8 %ID/g | tissue uptake at 2 h (kidneys, 2 h post-injection, NDP blockade (10 μg NDP-MSH co-injected), read-out: Kidneys, Percentage Injected Dose/gram): 59.5 ± 9.98 %ID/g | tissue uptake at 2 h (kidneys, 2 h post-injection, RGD blockade (3.5 μg RGD co-injected), read-out: Kidneys, Percentage Injected Dose/gram): 54.2 ± 15.1 %ID/g | tissue uptake at 0.5 h [8]: 4.02 ± 0.42 %ID/g | tissue uptake at 2 h (liver, 0.037 MBq, 2 h post-injection, read-out: Liver, Percentage Injected Dose/gram): 3.17 ± 1.43 %ID/g | tissue uptake at 4 h [8]: 2.91 ± 0.8 %ID/g | tissue uptake at 24 h [8]: 1.73 ± 0.33 %ID/g | tissue uptake at 2 h (liver, 2 h post-injection, NDP blockade (10 μg NDP-MSH co-injected), read-out: Liver, Percentage Injected Dose/gram): 2.89 ± 0.25 %ID/g | tissue uptake at 2 h (liver, 2 h post-injection, RGD blockade (3.5 μg RGD co-injected), read-out: Liver, Percentage Injected Dose/gram): 2.27 ± 0.23 %ID/g | tissue uptake at 0.5 h [9]: 5.31 ± 0.53 %ID/g | tissue uptake at 2 h (lung, 0.037 MBq, 2 h post-injection, read-out: Lung, Percentage Injected Dose/gram): 1.26 ± 0.32 %ID/g | tissue uptake at 4 h [9]: 1.07 ± 0.42 %ID/g | tissue uptake at 24 h [9]: 0.94 ± 0.45 %ID/g | tissue uptake at 2 h (lung, 2 h post-injection, NDP blockade (10 μg NDP-MSH co-injected), read-out: Lung, Percentage Injected Dose/gram): 1.31 ± 0.47 %ID/g | tissue uptake at 2 h (lung, 2 h post-injection, RGD blockade (3.5 μg RGD co-injected), read-out: Lung, Percentage Injected Dose/gram): 1.12 ± 0.1 %ID/g | tissue uptake at 0.5 h [10]: 0.38 ± 0.17 %ID/g | tissue uptake at 2 h (muscle, 0.037 MBq, 2 h post-injection, read-out: Muscle, Percentage Injected Dose/gram): 0.34 ± 0.29 %ID/g | tissue uptake at 4 h [10]: 0.13 ± 0.07 %ID/g | tissue uptake at 24 h [10]: 0.23 ± 0.19 %ID/g | tissue uptake at 2 h (muscle, 2 h post-injection, NDP blockade (10 μg NDP-MSH co-injected), read-out: Muscle, Percentage Injected Dose/gram): 0.21 ± 0.12 %ID/g | tissue uptake at 2 h (muscle, 2 h post-injection, RGD blockade (3.5 μg RGD co-injected), read-out: Muscle, Percentage Injected Dose/gram): 0.15 ± 0.06 %ID/g
